Test results as given in PMC3628991, “Synthesis and evaluation of cell-permeable biotinylated PU-H71 derivatives as tumor Hsp90 probes” (Beilstein Journal of Organic Chemistry, 2013).
pEC50, pIC50: −log10 of the molar value. “Also recorded” adds a separate entry of the source.

What was measured:
[1] = system: tumor cell Hsp90 complexes (SKBr3 human breast cancer lysate); assay: Hsp90 fluorescence polarization competition assay (GM-cy3B displacement) in SKBr3 cancer-cell lysate; type: binding; details: read-out: Affinity for Hsp90 (FP)
Description: The fraction of tracer bound to Hsp90 was correlated to the mP value and plotted against values of competitor concentrations. The inhibitor concentration at which 50% of bound GM was displaced was obtained by fitting the data.

[2] = system: Hsp90; assay: Chemical precipitation (affinity purification on streptavidin beads) from K562 cell lysates; design: species or system human; details: high-salt wash, Coomassie stain, 10, 25 and 50 µM
Procedure: Having identified which compounds were capable or not of permeating live cancer cells, we next wanted to determine whether the chain length was optimal to maintain concomitant binding to Hsp90 and streptavidin, so as to allow for isolation and identification of Hsp90/onco-client complexes from cancer cells. For this purpose, K562 lysates (Figure 2b and c) were incubated with the biotinylated ligands and the complexes captured on streptavidin beads. To test for the probe’s selectivity, pull-downs were performed with increasing concentrations of biotinylated derivatives (10, 25 and 50 µM; Figure 2c). Additionally, affinity-purified complexes were washed with high-salt buffer to remove Hsp90-bound co-chaperones and client proteins (Figure 2b and c).
(§1) Chemical precipitation from cell lysates. K562 cells were sonicated in 20 mM HEPES, pH 7.3, 50 mM KCl, 5 mM MgCl2, 20 mM Na2MoO4, and 0.01% NP40 lysis buffer containing added protease inhibitors. Affinity beads were prepared by addition of the biotinylated probes to the streptavidin agarose resin (40 μL) (Thermo Scientific), which was first washed three times with the lysis buffer. […] The protein extract (500 μg) was then added to the probe-bound beads, and samples were incubated at 4 °C overnight. Following five washes with lysis buffer, the protein isolates were subjected to SDS-PAGE.

[3] = system: Raf-1 (Hsp90 onco-client) in K562 cells; assay: Raf-1 steady-state levels by Western blot; type: cell-based, human; details: for Cancer-cell permeability / uptake: judged from Raf-1 degradation and growth inhibition in K562 cells; for Effect on Raf-1 steady-state levels (Raf-1 degradation): K562 cells, 24 h, probes at 5, 10 and 20 µM
Description: (§2) Having shown that each of the prepared biotinylated molecules retained good affinity for Hsp90, we next evaluated these compounds in two functional read-outs that together measure that the probe has entered a live cancer cell and once inside the cell, has bound to a substantial fraction of oncogenic Hsp90 molecules. Specifically, K562 is a human leukemia cell line dependent on Hsp90 for survival. Thus, in such cells, occupancy of Hsp90’s regulatory pocket by small molecules results in inhibition of its cancer-sheltering properties, leading to cell-growth inhibition associated with degradation of Hsp90-chaperoned onco-proteins. These, such as is the case for Raf-1 in K562 cells, become ubiquitinated and targeted for proteasomal degradation leading to a decrease in their steady-state levels (Figure 2a, Raf-1).
Western blotting. The K562 cell line was purchased from the American Type Culture Collection (Manassas, VA) and cultured in Roswell Park Memorial Institute (RPMI) supplemented with 10% fetal bovine serum, 1% L-glutamine, 1% penicillin and streptomycin. Cells were plated for 24 h prior to treatment for the indicated times with DMSO (vehicle) or with the indicated compounds. Protein extracts were prepared in 50 mM Tris pH 7.4, 150 mM NaCl and 1% NP-40 lysis buffer. Protein concentrations were measured by using the BCA kit (Pierce) according to the manufacturer's instructions. Protein lysates (50 μg) were resolved by SDS-PAGE, transferred onto nitrocellulose membrane and incubated with an anti-Raf-1 antibody from rabbit (1:500, sc-133, Santa Cruz) or anti-β-actin from mouse (1:2,500, A1978, Sigma-Aldrich). Membranes were then incubated with the corresponding peroxidase-conjugated secondary antibody (1:3,000 dilution) and visualized by the ECL detection reagent (Amersham).

[4] = system: K562 cells; assay: Growth inhibition assay (Alamar Blue); type: cell-based; details: Homo sapiens; Figure 2a; K562, 72 h, Alamar Blue; read-out: IC50 Growth inhibition
Description: as §2
Growth inhibition assay. The effect of compounds on cell growth was evaluated with the Alamar Blue assay. In summary, K562 cells were plated at 20,000 cells/well on Costar 96-well plates. Treatment with the probes added at the indicated concentrations in triplicate wells was performed on the subsequent day and lasted for 72 h. The Alamar Blue reagent resazurin (440 μM stock) was added at the end of the treatment to result in a final concentration of 50 μM. Plates were read 6 h later by using the Analyst GT instrument (Fluorescence intensity mode, excitation 530 nm, emission 580 nm, with 560 nm dichroic mirror). Results were analyzed in SoftMax Pro. The percentage of cell growth inhibition was calculated by comparing fluorescence readings obtained from treated versus control cells, accounting for the initial cell population (time zero). The IC50 was calculated as the drug concentration that inhibits cell growth by 50%.

[5] = system: Hsp90 and Hsp90/Raf-1 complexes; assay: Chemical precipitation (affinity purification on streptavidin beads) from live K562 cells; type: cell-based, human; details: for Isolation of Hsp90 from live K562 cells (band at 90 kDa, Coomassie): live K562 cells incubated 4 h, then permeabilized, streptavidin beads; for Isolation of Hsp90 in complex with onco-client protein Raf-1: live K562 cells, Coomassie and Raf-1 immunoblot
Procedure: To test for the probes’ ability to isolate Hsp90 in secondary and tertiary complexes, such as those containing onco-client proteins, affinity purifications were also performed from live K562 cancer cells (Figure 2d). In such a case, the biotinylated tool is added to live cells where the compound binds to Hsp90 in an onco-client-bound conformation, locking and preserving the endogenous Hsp90/protein complexes throughout the subsequent experimental steps (i.e., permeabilization). In contrast, when adding a biotinylated tool to cell homogenates, one may encounter two potential limitations. First, due to the dynamic nature of the Hsp90/client protein interactions, the endogenous complexes may be lost during the homogenization process and thus, pull-downs from homogenates may miss important interactors. Second, during homogenization, certain proteins may lose their well-regulated conformation and potentially aggregate. Such misfolded proteins are prone to be captured by chaperones resulting in “false positives” (i.e., nonendogenous Hsp90 client proteins). False positives increase the “background” on the affinity resin, and the higher the background, the poorer the identification of relevant endogenous Hsp90 complexes will be. Therefore, while it is true that following the addition of the biotinylated tool to cells, these are permeabilized or fixed/permeabilized and thus no longer alive, the capture of the oncogenic Hsp90 complexes takes place in the live cell.
Consequently, in live-cell experiments, cells were first incubated with the biotinylated PU-H71 derivatives to trap and maintain the onco-client complexed to Hsp90. Next, cells were ruptured into a physiological buffer containing molybdate. The purpose of this step is to release the proteins from the cell yet maintain the Hsp90/onco-client protein complexes intact. Following capture of these complexes on the streptavidin beads, complexes were applied to a denaturing gel, then probed by both Coomassie stain (Figure 2d, top panel) and immunoblot (Figure 2d, bottom panel Raf-1 blot).
Chemical precipitation from cells. K562 cells were treated with the indicated compounds for 4 h, after which cells were collected and washed three times with PBS. Protein extracts were prepared by sonicating cells in 20 mM HEPES, pH 7.3, 50 mM KCl, 5 mM MgCl2, 20 mM Na2MoO4, 0.01% NP40 lysis buffer. Streptavidin agarose beads (40 μL) (Thermo Scientific) were washed three times with the lysis buffer and added to 500 μg of the total cellular protein extract diluted in lysis buffer to a final volume of 120 μL. Samples were incubated at 4 °C for 1 h, washed five times with the lysis buffer (or high salt buffer containing 1 M NaCl added to the lysis buffer) and applied to SDS-PAGE. Gels were stained with Coomassie blue (BioRad) according to the manufacturer's instructions.

[6] = system: cytosolic Hsp90 versus Grp94; assay: Paralogue selectivity of affinity purification from K562 lysates (Western blot); design: species or system human; details: overnight, probes 50 µM
Procedure: as §1

[7] = molecular target: Grp94 (Homo sapiens, UniProt P14625); assay: Affinity for Hsp90 paralogues: Grp94; type: binding; details: paralogue comparison
[8] = system: Hsp90; assay: Affinity for Hsp90 paralogues: cytosolic Hsp90; type: binding; details: paralogue comparison

Grp94, sequence (P14625 22-803, species assumed): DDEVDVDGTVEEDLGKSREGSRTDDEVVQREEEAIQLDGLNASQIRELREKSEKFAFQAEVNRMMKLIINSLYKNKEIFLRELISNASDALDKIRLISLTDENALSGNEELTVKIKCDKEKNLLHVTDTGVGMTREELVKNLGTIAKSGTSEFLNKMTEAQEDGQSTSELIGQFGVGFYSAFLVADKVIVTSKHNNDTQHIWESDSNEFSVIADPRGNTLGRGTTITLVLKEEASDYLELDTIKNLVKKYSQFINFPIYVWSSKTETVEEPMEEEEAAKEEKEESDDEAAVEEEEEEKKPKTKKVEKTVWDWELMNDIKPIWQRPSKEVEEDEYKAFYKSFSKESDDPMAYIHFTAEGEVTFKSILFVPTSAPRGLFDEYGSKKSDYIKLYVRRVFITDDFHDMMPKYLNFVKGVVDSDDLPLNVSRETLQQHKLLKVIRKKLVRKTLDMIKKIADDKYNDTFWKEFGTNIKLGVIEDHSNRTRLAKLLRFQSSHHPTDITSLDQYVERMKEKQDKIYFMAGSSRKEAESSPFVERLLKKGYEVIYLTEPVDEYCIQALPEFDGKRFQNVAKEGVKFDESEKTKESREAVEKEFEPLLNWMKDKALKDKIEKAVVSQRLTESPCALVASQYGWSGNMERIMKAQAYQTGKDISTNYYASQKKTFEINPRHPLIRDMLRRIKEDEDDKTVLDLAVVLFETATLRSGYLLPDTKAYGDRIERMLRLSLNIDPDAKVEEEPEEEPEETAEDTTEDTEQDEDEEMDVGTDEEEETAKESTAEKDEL

Structure (SMILES) | pEC50 [1] | Isolation of Hsp90 from K562 lysates on streptavidin beads [2] | Cancer-cell permeability / uptake [3] | pIC50 [4] | Effect on Raf-1 steady-state levels (Raf-1 degradation) [3] | Isolation of Hsp90 from live K562 cells (band at 90 kDa, Coomassie) [5] | Preference in affinity purification of cytosolic Hsp90 over Grp94 [6] | Affinity for Grp94 [7] | Isolation of Hsp90 in complex with onco-client protein Raf-1 [5] | Affinity for Hsp90 [8]
NCCCn1c(Sc2cc3c(cc2I)OCO3)nc2c(N)ncnc21 [1b] | 7.59 | – | – | – | – | – | – | – | – | –
Nc1ncnc2c1nc(Sc1cc3c(cc1I)OCO3)n2CCCNCCOCCOCCOCCNC(=O)CCCC[C@@H]1SC[C@@H]2NC(=O)N[C@@H]21 [2a] | – | modest probe for affinity purifications | poor cancer-cell permeability | 5.30 | – | – | – | – | – | –
CC(C)N(CCCn1c(Sc2cc3c(cc2I)OCO3)nc2c(N)ncnc21)C(=O)CCCC[C@@H]1SC[C@@H]2NC(=O)N[C@@H]21 [2b] | – | unable to affinity purify Hsp90 | – | 5.58 | almost complete Raf-1 degradation | faint band or no band at 90 kDa | – | – | – | –
Nc1ncnc2c1nc(Sc1cc3c(cc1I)OCO3)n2CCCNC(=O)CCCC[C@@H]1SC[C@@H]2NC(=O)N[C@@H]21 [2c] | – | unable to affinity purify Hsp90 | – | 6.60 | almost complete Raf-1 degradation | faint band or no band at 90 kDa | – | – | – | –
CC(C)N(CCCn1c(Sc2cc3c(cc2I)OCO3)nc2c(N)ncnc21)C(=O)CCCCCNC(=O)CCCC[C@@H]1SC[C@@H]2NC(=O)N[C@@H]21 [2d] | – | – | – | 5.66 | almost complete Raf-1 degradation | faint band or no band at 90 kDa | – | – | – | –
Nc1ncnc2c1nc(Sc1cc3c(cc1I)OCO3)n2CCCNC(=O)CCCCCNC(=O)CCCC[C@@H]1SC[C@@H]2NC(=O)N[C@@H]21 [2e] | – | unable to affinity purify Hsp90 | – | 5.87 | almost complete Raf-1 degradation | faint band or no band at 90 kDa | – | – | – | –
CC(C)N(CCCn1c(Sc2cc3c(cc2I)OCO3)nc2c(N)ncnc21)C(=O)CCCCCNC(=O)CCCCCNC(=O)CCCC[C@@H]1SC[C@@H]2NC(=O)N[C@@H]21 [2f] | – | isolated substantial amounts of Hsp90 | – | 5.30 | failed to exhibit such properties; also recorded: to some degree | – | substantial preference | 210 nM | Most efficient | 98 nM
Nc1ncnc2c1nc(Sc1cc3c(cc1I)OCO3)n2CCCNC(=O)CCCCCNC(=O)CCCCCNC(=O)CCCC[C@@H]1SC[C@@H]2NC(=O)N[C@@H]21 [2g] | – | isolated substantial amounts of Hsp90 | substantially taken up by the cancer cell; also recorded: good permeability | 5.95 | almost complete Raf-1 degradation | – | substantial preference | 451 nM | Most efficient | 45 nM
CC(C)N(CCCn1c(Sc2cc3c(cc2I)OCO3)nc2c(N)ncnc21)C(=O)CCOCCOCCOCCOCCNC(=O)CCCC[C@@H]1SC[C@@H]2NC(=O)N[C@@H]21 [2h] | – | isolated substantial amounts of Hsp90 | – | 5.15 | failed to exhibit such properties; also recorded: failed to substantially degrade Raf-1 | – | substantial preference | 313 nM | Most efficient | 137 nM
Nc1ncnc2c1nc(Sc1cc3c(cc1I)OCO3)n2CCCNC(=O)CCOCCOCCOCCOCCNC(=O)CCCC[C@@H]1SC[C@@H]2NC(=O)N[C@@H]21 [2i] | – | isolated substantial amounts of Hsp90 | – | 5.07 | failed to exhibit such properties; also recorded: failed to substantially degrade Raf-1 | – | substantial preference | 226 nM | Most efficient | 83 nM
